Assay results taken from ChEMBL document CHEMBL4425117 (Bioorg Med Chem Lett, 2016).
pIC50, pKi: −log10 of the molar value.

Columns and labels:
[1] = biological target: T1, Endothelin-1 receptor (Homo sapiens, UniProt P25101); assay: Displacement of [125I]-ET-1 from human ETA receptor expressed in CHO cell membranes after 2 hrs by scintillation counting
T1 sequence (P25101 whole entry): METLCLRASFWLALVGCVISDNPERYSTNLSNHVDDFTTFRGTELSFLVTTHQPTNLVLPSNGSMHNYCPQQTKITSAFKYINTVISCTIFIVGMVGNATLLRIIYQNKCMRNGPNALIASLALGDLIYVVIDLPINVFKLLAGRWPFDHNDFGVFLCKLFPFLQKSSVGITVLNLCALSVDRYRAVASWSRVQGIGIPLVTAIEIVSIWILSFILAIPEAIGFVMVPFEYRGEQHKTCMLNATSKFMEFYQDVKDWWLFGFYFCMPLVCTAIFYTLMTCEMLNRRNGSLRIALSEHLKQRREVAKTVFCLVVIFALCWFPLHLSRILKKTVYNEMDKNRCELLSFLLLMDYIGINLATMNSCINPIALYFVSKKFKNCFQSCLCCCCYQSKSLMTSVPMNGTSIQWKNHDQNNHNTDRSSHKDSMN

[2] = biological target: T2, Endothelin receptor type B (Homo sapiens, UniProt P24530); assay: Displacement of [125I]-ET-1 from human ETB receptor expressed in CHO cell membranes after 2 hrs by scintillation counting
T2 sequence (P24530 whole entry): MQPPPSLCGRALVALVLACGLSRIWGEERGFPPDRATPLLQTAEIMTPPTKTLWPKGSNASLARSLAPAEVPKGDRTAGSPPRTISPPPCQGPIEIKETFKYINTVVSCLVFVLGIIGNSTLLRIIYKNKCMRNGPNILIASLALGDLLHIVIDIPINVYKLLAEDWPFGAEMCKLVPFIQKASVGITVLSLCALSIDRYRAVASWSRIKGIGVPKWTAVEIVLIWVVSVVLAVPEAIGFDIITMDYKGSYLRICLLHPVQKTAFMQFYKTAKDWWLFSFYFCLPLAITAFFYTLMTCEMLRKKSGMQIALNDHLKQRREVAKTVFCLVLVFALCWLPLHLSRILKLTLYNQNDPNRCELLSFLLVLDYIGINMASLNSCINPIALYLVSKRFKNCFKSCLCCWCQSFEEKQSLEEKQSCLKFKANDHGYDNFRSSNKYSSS

[3] = biological target: T1, Endothelin-1 receptor; assay: Displacement of 125I-ET1 from ETA receptor (unknown origin) expressed in CHO cells; assay type: cell-based
[4] = biological target: T2, Endothelin receptor type B; assay: Displacement of radioligand from ETB receptor in human placenta cell membranes
[5] = biological target: T1, Endothelin-1 receptor; assay: Displacement of radioligand from ETA receptor (unknown origin) expressed in fall armyworm sf9 cell membranes
[6] = biological target: T1, Endothelin-1 receptor; assay: Displacement of 125I-ET1 from human placenta cell membrane ETA receptor expressed in Baculovirus-infected insect cells
[7] = biological target: T3, Endothelin receptor type B (Sus scrofa, UniProt P35463); assay: Displacement of 125I-ET1 from pig ETB receptor transfected in grivet COS7 cells; assay type: cell-based
T3 sequence (P35463 whole entry): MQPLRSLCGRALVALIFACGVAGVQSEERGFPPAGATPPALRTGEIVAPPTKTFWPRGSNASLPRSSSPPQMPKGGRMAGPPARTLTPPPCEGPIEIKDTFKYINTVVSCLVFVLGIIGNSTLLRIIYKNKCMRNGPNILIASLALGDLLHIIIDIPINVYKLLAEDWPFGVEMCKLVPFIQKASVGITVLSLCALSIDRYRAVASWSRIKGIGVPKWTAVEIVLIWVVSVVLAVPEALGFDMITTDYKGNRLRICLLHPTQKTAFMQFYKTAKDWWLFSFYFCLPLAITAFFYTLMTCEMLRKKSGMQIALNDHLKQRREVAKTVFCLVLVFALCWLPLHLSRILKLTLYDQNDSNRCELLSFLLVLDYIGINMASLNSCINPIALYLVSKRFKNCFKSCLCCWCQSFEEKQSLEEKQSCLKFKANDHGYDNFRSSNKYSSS

[8] = biological target: T4, Endothelin-1 receptor (Rattus norvegicus, UniProt P26684); assay: Displacement of 125I-ET1 from ETA receptor in rat A7R5 cells; assay type: cell-based
T4 sequence (P26684 whole entry): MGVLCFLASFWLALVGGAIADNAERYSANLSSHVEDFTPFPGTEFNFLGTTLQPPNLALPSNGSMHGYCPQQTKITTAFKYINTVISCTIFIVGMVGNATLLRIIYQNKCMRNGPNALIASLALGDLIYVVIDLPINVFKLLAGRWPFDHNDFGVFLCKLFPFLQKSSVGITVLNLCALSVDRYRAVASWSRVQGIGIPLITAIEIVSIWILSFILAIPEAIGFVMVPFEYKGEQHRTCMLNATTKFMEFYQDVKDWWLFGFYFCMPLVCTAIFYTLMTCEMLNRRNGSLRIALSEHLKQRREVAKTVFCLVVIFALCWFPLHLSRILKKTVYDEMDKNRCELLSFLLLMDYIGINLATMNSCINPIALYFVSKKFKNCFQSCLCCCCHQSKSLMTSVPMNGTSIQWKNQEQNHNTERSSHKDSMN

[9] = biological target: T1, Endothelin-1 receptor; assay: Antagonist activity at ETA receptor (unknown origin)
[10] = biological target: T4, Endothelin-1 receptor; assay: Antagonist activity at rat aortic ring ETA receptor in presence of ET1; settings: read-out: pA2 (converted)
[11] = biological target: T2, Endothelin receptor type B; assay: Antagonist activity at human ETB receptor expressed in CHO cells in presence of ET1; assay type: cell-based

Compound	pIC50 [1]	pIC50 [2]	other results
CCCCNS(=O)(=O)Nc1ncnc(OCCOc2ncc(SC)cn2)c1-c1ccc(Cl)cc1	9.52	–	–
CCCNS(=O)(=O)Nc1ncnc(OCCOc2ncc(Br)cn2)c1Oc1ccccc1OC	7.81	5.84	–
COc1ccccc1Oc1c(NS(=O)(=O)c2ccc(C)cn2)nc(-c2ccnc(-c3noc(=S)[nH]3)c2)nc1OCC1CCCO1 (stereo not given)	8.22	6.54	–
COc1ccccc1Oc1c(NS(=O)(=O)c2ccc(C(C)C)cn2)nc(-c2ccnc(-c3nnn[nH]3)c2)nc1OCCO [TEZOSENTAN]	–	–	pIC50 [3]: 7.74; pIC50 [4]: 7.68
COc1ccccc1Oc1c(NS(=O)(=O)c2ccccc2)nc(-c2ncccn2)nc1OCCO	–	–	pIC50 [5]: 5.82
CC(C)(C)c1ccc(S(=O)(=O)Nc2nc(-c3ncccn3)nc(OCCO)c2Oc2ccccc2O)cc1	–	–	pIC50 [5]: 4.59
CCCCNS(=O)(=O)Nc1ncnc(OCCOc2ncc(OC)cn2)c1-c1ccc(Br)cc1	9.30	6.68	–
COc1cccc(Oc2c(NS(=O)(=O)c3ccc(SC)cc3)cc(C(=O)Nc3ccccc3)cc2OCCO)c1	–	–	pIC50 [6]: < 4.00
Cc1ccc(-c2c(NS(=O)(=O)c3ccc(C(C)(C)CO)cc3)ncnc2OCCOc2ncc(Br)cn2)cc1	–	–	pIC50 [7]: 7.39
COC(c1ccccc1)(c1ccccc1)[C@H](Oc1nc(C)cc(C)n1)C(=O)O [AMBRISENTAN]	9.00	–	–
CCCNS(=O)(=O)Nc1ncnc(OCCOc2ncc(OC)cn2)c1-c1ccc(Br)cc1	8.62	6.29	–
COc1ccccc1Oc1c(NS(=O)(=O)c2ccc(C(C)(C)C)cc2)nc(-c2ncccn2)[nH]c1=O	–	–	pIC50 [5]: 3.88
CNS(=O)(=O)Nc1ncnc(OCCOc2ncc(SC)cn2)c1-c1ccc(Br)cc1	8.70	6.54	–
COc1ccccc1Oc1c(NS(=O)(=O)c2ccc(C)cn2)nc(-c2ccnc(-c3nnn[nH]3)c2)nc1OCCO [CLAZOSENTAN]	–	–	pIC50 [3]: 8.77; pIC50 [4]: 6.76
CSc1cnc(OCCOc2ncnc(NS(=O)(=O)c3ccc(C(C)(C)C)cc3)c2-c2cc3ccccc3s2)nc1	–	–	pIC50 [8]: 10.59
Cc1ccc(-c2c(NS(=O)(=O)/C=C/c3ccccc3)ncnc2OCCOc2ncc(Br)cn2)cc1	8.70	–	–
COc1cnc(OCCOc2nc(-c3ccncc3)nc(NS(=O)(=O)NCc3ccccc3)c2-c2ccc(Cl)cc2)nc1	8.70	6.24	–
CNS(=O)(=O)Nc1ncnc(OCCOc2ncc(SC)cn2)c1-c1ccc(Cl)cc1	8.48	6.26	–
COc1ccc(Cl)c(Oc2c(NS(C)(=O)=O)ncnc2OCCOc2ncc(S(C)(=O)=O)cn2)c1	8.52	6.27	–
CCCc1nc(C)ccc1O[C@@H](C(=O)NS(=O)(=O)c1ccc(C(C)C)cc1)c1ccc2c(c1)OCO2	–	–	pKi [2]: 7.60; pKi [1]: 9.96
CCNS(=O)(=O)Nc1ncnc(OCCOc2ncc(SC)cn2)c1-c1ccc(Br)cc1	9.15	–	–
COCCOc1nc(-c2ncccn2)nc(NS(=O)(=O)CCc2ccccc2)c1Oc1ccccc1OC	–	–	pIC50 [8]: 8.44
COc1ccccc1Oc1c(NS(=O)(=O)CCc2ccccc2)nc(-c2ncccn2)nc1OCCO	–	–	pIC50 [9]: 7.60
Cc1ccc(C2=C(C(=O)O)C(c3ccc4c(c3)OCO4)Oc3ccc(OC(C)C)cc32)s1 (stereo not given)	9.00	5.74	–
COc1ccccc1Oc1c(NS(=O)(=O)c2ccc(C(C)C)cn2)nc(-c2ccncc2)nc1OC	–	–	pIC50 [6]: 8.85

Compound	pIC50 [1]	pIC50 [2]	other results
COc1ccccc1Oc1c(NS(=O)(=O)/C=C/c2ccccc2)nc(-c2ncccn2)nc1OCCO	–	–	pIC50 [8]: 8.80
O=S(=O)(Nc1ncnc(OCCO)c1-c1ccc(Cl)cc1)c1ccc(Cl)cc1	–	–	pIC50 [4]: 5.07; pIC50 [5]: 5.00
COc1cc(OC)nc(O[C@H](C(=O)O)C(OC)(c2ccccc2)c2ccccc2)n1	–	–	pKi [2]: 6.43; pKi [1]: 8.22
CCCNS(=O)(=O)Nc1ncnc(OCCOc2ncc(SC)cn2)c1-c1ccc(Cl)cc1	8.82	6.16	–
CCCNS(=O)(=O)Nc1ncnc(OCCOc2ncc(SC)cn2)c1Oc1ccccc1OC	8.03	6.50	–
CCCCNS(=O)(=O)Nc1ncnc(OCCOc2ncc(SC)cn2)c1-c1ccc(Br)cc1	9.52	7.20	–
COc1ccccc1Oc1c(OCCO)nc(-c2ncccn2)nc1N(C)S(=O)(=O)c1ccc(C(C)(C)C)cc1	–	–	pIC50 [5]: < 4.00
COc1ccc(Cl)c(Oc2c(NS(=O)(=O)c3ccc(C(C)(C)C)cc3)nc(N3CCOCC3)nc2OCCO)c1	–	–	pIC50 [6]: 7.46
COc1ccccc1Oc1c(NS(=O)(=O)CCc2cccs2)nc(N2CCOCC2)nc1OCCOC(=O)Nc1ccccn1	9.00	7.00	–
COc1ccccc1Cc1c(NS(=O)(=O)c2ccc(C(C)(C)C)cc2)ncnc1OCCO	–	–	pIC50 [6]: 5.70
COc1ccccc1Oc1c(NS(=O)(=O)c2ccc(C(C)(C)C)cc2)nc(N2CCOCC2)nc1OCCC(=O)Nc1ccccc1C(C)C	–	–	pIC50 [7]: 9.07; pIC50 [8]: 7.20
O=S(=O)(Nc1ncnc(OCCO)c1-c1ccc(Cl)cc1)c1ccc(C(F)(F)F)cc1	–	–	pIC50 [4]: 5.70; Kb [10]: 1580 nM; pIC50 [5]: 4.74
COc1ccccc1Oc1c(NS(=O)(=O)c2ccc(C(C)(C)C)cc2)nc(-c2ccccc2)nc1OCCO	–	–	Kb [10]: 126 nM; pIC50 [5]: 6.10
COc1nc(C)cnc1NS(=O)(=O)c1cccnc1-c1ccc(-c2nnco2)cc1 [ZIBOTENTAN]	–	< 7.00	–
COc1ccccc1Oc1c(NS(=O)(=O)c2ccc(C(C)(C)C)cc2)nc(-c2ncccn2)nc1OCCO [BOSENTAN]	–	–	Kb [10]: 39.8 nM
CCCNS(=O)(=O)Nc1ncnc(OCCOc2ncc(SC)cn2)c1Oc1cccc(OC)c1	8.85	7.05	–
CCCNS(=O)(=O)Nc1ncnc(OCCOc2ncc(SC)cn2)c1-c1ccc(Br)cc1	10.00	7.09	–
Cc1ccc(-c2c(NS(=O)(=O)c3ccc(C(C)(C)C)cc3)ncnc2OCCO)cc1	–	–	pIC50 [6]: 6.00
CCCc1nc(SC2CCC(CC(=O)O)CC2)c(C(=O)O)n1Cc1cc2c(cc1Cl)OCO2 (stereo not given)	8.96	–	–
Cc1ccc(=O)n([C@@H](C(=O)NS(=O)(=O)c2ccc(C(C)C)cc2)c2ccc3c(c2)OCO3)n1	7.54	8.46	–
COc1ccccc1Oc1c(NS(=O)(=O)c2ccc(C(C)C)cn2)nc(N2CCOCC2)nc1OCC#CCOC(=O)c1ccccn1	9.00	7.38	Kb [10]: 20 nM
CC#CCOc1nc(-c2ccnc(-c3nnn[nH]3)c2)nc(NS(=O)(=O)c2ccc(C(C)(C)C)cc2)c1Oc1ccccc1OC	7.48	7.54	–
COc1ccccc1Oc1c(NS(=O)(=O)c2ccc(C(C)(C)C)cc2)ncnc1OCCO	–	–	Kb [10]: 955 nM; pIC50 [5]: 5.82
O=C(O)CCNS(=O)(=O)Nc1ncnc(OCCOc2ncc(Br)cn2)c1-c1ccc(Br)cc1	9.15	–	–
COc1ccc(-c2nc(NS(=O)(=O)c3ccc(C(C)(C)C)cc3)c(Oc3ccccc3OC)c(OC[C@H](O)CO)n2)cc1	–	–	pIC50 [11]: 7.16; pIC50 [5]: 5.17
